This is an account of results in patent US20260184712A1, “Heterocyclic Compounds as ENT Inhibitors and Compounds for Use in the Treatment of Cancers” (iTeos Belgium SA, priority 2022, published 2026).

This experiment deals with T1, human ENT1 (Homo sapiens, UniProt Q99808).
T1 construct: JAR cells expressing ENT1 were purchased from ATCC; host or cells: JAR cells
T1 sequence (Q99808 1-456): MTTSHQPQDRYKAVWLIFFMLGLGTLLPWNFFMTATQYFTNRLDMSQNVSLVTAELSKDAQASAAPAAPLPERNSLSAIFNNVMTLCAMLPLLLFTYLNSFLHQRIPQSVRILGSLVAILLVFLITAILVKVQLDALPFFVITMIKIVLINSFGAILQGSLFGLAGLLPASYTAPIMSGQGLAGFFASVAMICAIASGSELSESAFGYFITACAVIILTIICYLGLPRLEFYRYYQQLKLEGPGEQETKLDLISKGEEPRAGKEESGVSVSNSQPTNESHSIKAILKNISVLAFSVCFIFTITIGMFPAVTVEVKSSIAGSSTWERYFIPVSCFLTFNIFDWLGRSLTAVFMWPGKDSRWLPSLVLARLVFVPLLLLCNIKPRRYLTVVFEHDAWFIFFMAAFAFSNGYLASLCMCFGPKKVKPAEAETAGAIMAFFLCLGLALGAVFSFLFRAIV
The experiment in a line: ENT1 binding assay (competition with Sahenta-DY647 on JAR cells). The conditions noted are these: IC50 categorized. Here is the method: Compounds of the present disclosure were assayed to show ability to bind to human ENT1. The assay is a competition between a compound of interest and Sahenta-DY647, an ENT1 inhibitor that emits fluorescence (Ex=630 nm, Em=670 nm). By measuring the fluorescence at the end of the assay, one can assess the binding potency of the compounds tested. The compounds of the present disclosure were tested and compared to known ENT inhibitors, dilazep and NBMPR:
JAR cells expressing ENT1 were purchased from ATCC® (HTB-144TM). Cells were cultured in RPMI 1640 medium (LONZA®, #BE12-702F/U1) supplemented with 10% FBS (GIBCO®, #10270-106), 10 mM Hepes (LONZA®, #BE17-737E), 1 mM Sodium Pyruvate (LONZA®, #BE13-115E), and 2% Penicillin/Streptomycin (LONZA®, #DE17-603E) at 37° C. and 5% CO2.
The assay was conducted with the following buffer on the day of the assay: HBSS (LONZA®, #LO-527F) supplemented with 10 mM Hepes (LONZA®, #BE17-737E) and 0.1% BSA (Miltenyi®, #130-091-376).
JAR cells were resuspended in the described buffer. The compounds of interest and Sahenta-DY647 were diluted 200× with the described buffer.
A total of 50,000 cells were pre-incubated for 30 min at 4° C. with the compounds of the present disclosure before adding the corresponding amount of Sahenta-DY647 (100 nM) to the minimal concentration at Bmax and incubating for an additional 30 min at 4° C. The total volume of the reaction was 100 μL (50 μL of cells, 25 μL of the compounds of the present disclosure, and 25 μL of Sahenta-DY647) in a U-bottom 96 well plate (Greiner®, #650-180). The plates were washed 2× by centrifugation (4 min, 400 rcf at 4° C.) in the same buffer. Cells were re-suspended in 70 μL of the buffer and 50 μL was transferred to a Black 384 Optiplate (PerkinElmer®, #6007279). Fluorescence (Ex=630 nm, Em=670 nm) was acquired on a Spectramax i3x (Molecular Devices®).
Dose-response data from the compounds were analyzed with Graphpad Prism 9.1.1@software, using nonlinear regression applied to a sigmoidal dose-response model and the following equation:
Y=Bottom+(Top-Bottom)/(1+10^((LogIC50−X)*HillSlope)), with a shared bottom and top between the test reagent and dipyridamole.
Data from multiple experiments were compiled by taking the average pIC50 value for the reagent in question±the standard deviation (s.d.) and expressing it as an average IC50 value in nM.
The inhibitory effect of the test compound was expressed as a percentage of the inhibition of SAHENTA-DY647 binding.

Setting [1] is: competition with SAHENTA-DY647 binding, read-out: Binding Assay IC50.

Read-outs that look alike come from different tables or passages of the source.

Take `C[C@H]1O[C@@H](n2cnc3c(SCc4cnc(C(F)(F)F)nc4)ncnc32)[C@H](O)[C@@H]1O` [Compound 311]: the IC50 under setting [1] was over 500 nM.

`C[C@H]1O[C@@H](n2c(NC3CCCC3)nc3c(OCc4ccc(OC(F)(F)F)cc4)ncnc32)[C@H](O)[C@@H]1O` [Compound 88]: the IC50 under setting [1] lay in the range of 1 to 20 nM.

With `C[C@H]1O[C@@H](n2cnc3c(OCc4ccc(OC(F)(F)F)c(Cl)c4)ncnc32)[C@H](O)[C@@H]1O` [Compound 234], the IC50 under setting [1] is over 500 nM.

As for `C[C@H]1O[C@@H](n2c(-c3cnn(C)c3)nc3c(OCc4ccc([N+](=O)[O-])cc4)ncnc32)[C@H](O)[C@@H]1O` [Compound 13], under setting [1], the concentration for half-maximal inhibition (IC50) fell in the range of 20 to 500 nM.

`O=[N+]([O-])c1ccc(COc2ncnc3c2nnn3[C@@H]2C[C@H](OCCO)[C@@H](O)[C@H]2O)cc1` [Compound 309]: the half-inhibitory concentration (IC50) under setting [1] was over 500 nM.

For `C[C@H]1O[C@@H](n2cnc3c(OCc4ccc(-n5cccn5)cc4)ncnc32)[C@H](O)[C@@H]1O` [Compound 328], the IC50 under setting [1] was over 500 nM.

Consider `C[C@H]1O[C@@H](n2c(NCC3CC(F)(F)C3)nc3c(OCc4ccc(C#N)cc4)ncnc32)[C@H](O)[C@@H]1O` [Compound 104], for which, under setting [1], the IC50 lay within 1 to 20 nM.

`C[C@H]1O[C@@H](n2c(NCCCS(C)(=O)=O)nc3c(OCc4ccc(OC(F)F)cc4)ncnc32)[C@H](O)[C@@H]1O` [Compound 62]: the IC50 under setting [1] is 1 to 20 nM.

`C[C@H]1O[C@@H](n2cnc3c(N4CCC(c5ccc([N+](=O)[O-])cc5)CC4)ncnc32)[C@H](O)[C@@H]1O` [Compound 213]: under setting [1], the IC50 lay within 20 to 500 nM.

Regarding `C[C@H]1O[C@@H](n2cnc3c(N[C@H]4C[C@@H]4c4ccc(Cl)cc4)ncnc32)[C@H](O)[C@@H]1O` [Compound 327], the IC50 under setting [1] is over 500 nM.

Turning to `C[C@H]1O[C@@H](n2cnc3c(OCCc4ccc(C(F)F)cc4)ncnc32)[C@H](O)[C@@H]1O` [Compound 267], the IC50 under setting [1] was over 500 nM.

As to `C[C@H]1O[C@@H](n2cnc3c(C(=O)N4CC(c5ccc([N+](=O)[O-])cc5)C4)ncnc32)[C@H](O)[C@@H]1O` [Compound 266], the IC50 under setting [1] was over 500 nM.

Take `C[C@H]1O[C@@H](n2cnc3c(C(=O)NCc4ccc(Cl)cc4F)ncnc32)[C@H](O)[C@@H]1O` [Compound 330]: the IC50 under setting [1] is over 500 nM.

`C[C@H]1O[C@@H](n2cnc3c(OCc4ncc(F)cc4F)ncnc32)[C@H](O)[C@@H]1O` [Compound 362]: the IC50 under setting [1] was over 500 nM.

For `C[C@H]1O[C@@H](n2cnc3c(NCc4ccc(Cl)c(Cl)c4)ncnc32)[C@H](O)[C@@H]1O` [Compound 254], under setting [1], the concentration for half-maximal inhibition (IC50) is over 500 nM.

`C[C@H]1O[C@@H](n2c(N[C@@H]3CCC(F)(F)C3)nc3c(OCc4ccc([N+](=O)[O-])cc4)ncnc32)[C@H](O)[C@@H]1O` [Compound 83]: the concentration for half-maximal inhibition (IC50) under setting [1] was under 1 nM.

`C[C@H]1O[C@@H](n2cnc3c(OCc4ccc5c(c4)OCCO5)ncnc32)[C@H](O)[C@@H]1O` [Compound 363]: the IC50 under setting [1] is over 500 nM.

`C[C@H]1O[C@@H](n2cnc3c(NCc4cc(C(F)(F)F)ccc4F)ncnc32)[C@H](O)[C@@H]1O` [Compound 378]: the half-inhibitory concentration (IC50) under setting [1] was over 500 nM.

As to `C[C@H]1O[C@@H](n2c(NCC3COC3)nc3c(OCc4ccc(C#N)cc4)ncnc32)[C@H](O)[C@@H]1O` [Compound 107], the IC50 under setting [1] was in the range of 20 to 500 nM.

For `C[C@H]1O[C@@H](n2cnc3c(SCc4ccc(S(=O)(=O)N5CCCC5)cc4)ncnc32)[C@H](O)[C@@H]1O` [Compound 391], under setting [1], the 50% inhibitory concentration (IC50) was over 500 nM.

In the case of `C[C@H]1O[C@@H](n2cnc3c(C4CCc5ccc([N+](=O)[O-])cc5C4)ncnc32)[C@H](O)[C@@H]1O` (some centres unmarked) [Compound 227], under setting [1], the IC50 is over 500 nM.

On to `C[C@H]1O[C@@H](n2c(C(=O)NC3CCCC3)nc3c(OCc4ccc([N+](=O)[O-])cc4)ncnc32)[C@H](O)[C@@H]1O` [Compound 3], for which the concentration for half-maximal inhibition (IC50) under setting [1] lay in the range of 20 to 500 nM.

In the case of `C[C@H]1O[C@@H](n2c(NC3CCC(O)CC3)nc3c(OCc4ccc(C#N)cc4)ncnc32)[C@H](O)[C@@H]1O` (some centres unmarked) [Compound 52], the 50% inhibitory concentration (IC50) under setting [1] was under 1 nM.

For the compound `C[C@H]1O[C@@H](n2cnc3c(OCc4ccc(C#N)cc4)nc(Cl)nc32)[C@H](O)[C@@H]1O` [Compound 244], the IC50 under setting [1] is over 500 nM.

For the compound `C[C@H]1O[C@@H](n2ccc3c(SCc4ccc([N+](=O)[O-])cc4)ncnc32)[C@H](O)[C@@H]1O` [Compound 197], the half-maximal inhibitory concentration (IC50) under setting [1] was 20 to 500 nM.

Consider `C[C@H]1O[C@@H](n2c(N[C@H]3CCC(F)(F)C3)nc3c(OCc4ccc([N+](=O)[O-])cc4)ncnc32)[C@H](O)[C@@H]1O` [Compound 84], for which the IC50 under setting [1] was under 1 nM.

As to `C[C@H]1O[C@@H](n2cnc3c(NCc4ccc(C(F)(F)F)c(Cl)c4)ncnc32)[C@H](O)[C@@H]1O` [Compound 282], the half-maximal inhibitory concentration (IC50) under setting [1] is over 500 nM.

With `C[C@H]1O[C@@H](n2c(Nc3cnn(C)c3)nc3c(OCc4ccc(C#N)cc4)ncnc32)[C@H](O)[C@@H]1O` [Compound 63], the IC50 under setting [1] was 20 to 500 nM.

For `C[C@H]1O[C@@H](n2cnc3c(NCc4ccc(S(N)(=O)=O)cc4)ncnc32)[C@H](O)[C@@H]1O` [Compound 334], the IC50 under setting [1] is over 500 nM.

For the compound `C[C@H]1O[C@@H](n2cnc3c(SCc4ccccc4)ncnc32)[C@H](O)[C@@H]1O` [Compound 224], the IC50 (Binding Assay IC50, competition with SAHENTA-DY647 binding) is over 500 nM.

In the case of `C[C@H]1O[C@@H](n2cnc3c(-c4noc(-c5ccc([N+](=O)[O-])cc5)n4)ncnc32)[C@H](O)[C@@H]1O` [Compound 421], the half-inhibitory concentration (IC50) under setting [1] was over 500 nM.

Take `C[C@H]1OC(n2cnc3c(COc4ccc(C#N)c(F)c4)ncnc32)[C@H](O)[C@@H]1O` (some centres unmarked) [Compound 258]: the concentration for half-maximal inhibition (IC50) under setting [1] was over 500 nM.

Consider `C[C@H]1O[C@@H](n2cc(C(F)(F)F)c3c(SCc4ccc([N+](=O)[O-])cc4)ncnc32)[C@H](O)[C@@H]1O` [Compound 163], for which the half-inhibitory concentration (IC50) under setting [1] fell in the range of 20 to 500 nM.

Turning to `C[C@H]1O[C@@H](n2c(NCC3CCOCC3)nc3c(OCc4ccc(C#N)cc4)ncnc32)[C@H](O)[C@@H]1O` [Compound 109], the IC50 under setting [1] lay in the range of 1 to 20 nM.

With `C[C@H]1O[C@@H](n2cnc3c(OCc4ccc([N+](=O)[O-])cc4)nc(F)nc32)[C@H](O)[C@@H]1O` [Compound 225], the IC50 under setting [1] is over 500 nM.

With `C[C@H]1O[C@@H](n2cnc3c(NCc4ccc(-n5ccnn5)cc4)ncnc32)[C@H](O)[C@@H]1O` [Compound 326], under setting [1], the half-maximal inhibitory concentration (IC50) was over 500 nM.

As to `C[C@H]1O[C@@H](n2c(NCCCO)nc3c(N4CCc5ccc(C#N)cc5C4)ncnc32)[C@H](O)[C@@H]1O` [Compound 155], the IC50 under setting [1] fell in the range of 1 to 20 nM.

For the compound `Cc1ncc(CNc2nc3c(OCc4ccc(C#N)cc4)ncnc3n2[C@@H]2O[C@H](C)[C@@H](O)[C@H]2O)cn1` [Compound 71], the IC50 under setting [1] lay within 1 to 20 nM.

Turning to `C[C@H]1O[C@@H](n2cnc3c(OCCc4ccc(OCF)cc4)ncnc32)[C@H](O)[C@@H]1O` [Compound 343], the concentration for half-maximal inhibition (IC50) under setting [1] is over 500 nM.

Turning to `C[C@H]1O[C@@H](n2cnc3c(SCc4ccc(C(=N)N)cc4)ncnc32)[C@H](O)[C@@H]1O` [Compound 410], under setting [1], the IC50 is over 500 nM.

On to `C[C@H]1O[C@@H](n2cnc3c(C(=O)NCc4ccc(C(F)(F)F)cc4)ncnc32)[C@H](O)[C@@H]1O` [Compound 298], for which the IC50 under setting [1] is over 500 nM.

As to `COc1ccccc1COc1ncnc2c1ncn2[C@@H]1O[C@H](C)[C@@H](O)[C@H]1O` [Compound 325], the IC50 under setting [1] was over 500 nM.

Consider `C[C@H]1O[C@@H](n2cnc3c(OCc4ccc(N5CCCC5)cc4)ncnc32)[C@H](O)[C@@H]1O` [Compound 377], for which the half-maximal inhibitory concentration (IC50) under setting [1] is over 500 nM.

Turning to `C[C@H]1O[C@@H](n2c(NC3CCCC3)nc3c(OCc4ccc(C(F)F)cc4)ncnc32)[C@H](O)[C@@H]1O` [Compound 94], the IC50 under setting [1] was 1 to 20 nM.

A word on the IC50: it is the concentration needed to halve the response being measured.
